{"source": "paper PMC11423305", "about": "“Structure-Based Design of CBP/EP300 Degraders: When Cooperativity Overcomes Affinity” (JACS Au, 2024)", "key": {"CBP": {"biological_target": "T1, CBP (Homo sapiens, UniProt Q92793)", "T1 construct": "quantification of CBP and EP300 levels by Western blotting following 16 h treatment of LP1 cells; endogenous in cells; host or cells: LP1 cells", "T1 sequence (Q92793 whole entry)": "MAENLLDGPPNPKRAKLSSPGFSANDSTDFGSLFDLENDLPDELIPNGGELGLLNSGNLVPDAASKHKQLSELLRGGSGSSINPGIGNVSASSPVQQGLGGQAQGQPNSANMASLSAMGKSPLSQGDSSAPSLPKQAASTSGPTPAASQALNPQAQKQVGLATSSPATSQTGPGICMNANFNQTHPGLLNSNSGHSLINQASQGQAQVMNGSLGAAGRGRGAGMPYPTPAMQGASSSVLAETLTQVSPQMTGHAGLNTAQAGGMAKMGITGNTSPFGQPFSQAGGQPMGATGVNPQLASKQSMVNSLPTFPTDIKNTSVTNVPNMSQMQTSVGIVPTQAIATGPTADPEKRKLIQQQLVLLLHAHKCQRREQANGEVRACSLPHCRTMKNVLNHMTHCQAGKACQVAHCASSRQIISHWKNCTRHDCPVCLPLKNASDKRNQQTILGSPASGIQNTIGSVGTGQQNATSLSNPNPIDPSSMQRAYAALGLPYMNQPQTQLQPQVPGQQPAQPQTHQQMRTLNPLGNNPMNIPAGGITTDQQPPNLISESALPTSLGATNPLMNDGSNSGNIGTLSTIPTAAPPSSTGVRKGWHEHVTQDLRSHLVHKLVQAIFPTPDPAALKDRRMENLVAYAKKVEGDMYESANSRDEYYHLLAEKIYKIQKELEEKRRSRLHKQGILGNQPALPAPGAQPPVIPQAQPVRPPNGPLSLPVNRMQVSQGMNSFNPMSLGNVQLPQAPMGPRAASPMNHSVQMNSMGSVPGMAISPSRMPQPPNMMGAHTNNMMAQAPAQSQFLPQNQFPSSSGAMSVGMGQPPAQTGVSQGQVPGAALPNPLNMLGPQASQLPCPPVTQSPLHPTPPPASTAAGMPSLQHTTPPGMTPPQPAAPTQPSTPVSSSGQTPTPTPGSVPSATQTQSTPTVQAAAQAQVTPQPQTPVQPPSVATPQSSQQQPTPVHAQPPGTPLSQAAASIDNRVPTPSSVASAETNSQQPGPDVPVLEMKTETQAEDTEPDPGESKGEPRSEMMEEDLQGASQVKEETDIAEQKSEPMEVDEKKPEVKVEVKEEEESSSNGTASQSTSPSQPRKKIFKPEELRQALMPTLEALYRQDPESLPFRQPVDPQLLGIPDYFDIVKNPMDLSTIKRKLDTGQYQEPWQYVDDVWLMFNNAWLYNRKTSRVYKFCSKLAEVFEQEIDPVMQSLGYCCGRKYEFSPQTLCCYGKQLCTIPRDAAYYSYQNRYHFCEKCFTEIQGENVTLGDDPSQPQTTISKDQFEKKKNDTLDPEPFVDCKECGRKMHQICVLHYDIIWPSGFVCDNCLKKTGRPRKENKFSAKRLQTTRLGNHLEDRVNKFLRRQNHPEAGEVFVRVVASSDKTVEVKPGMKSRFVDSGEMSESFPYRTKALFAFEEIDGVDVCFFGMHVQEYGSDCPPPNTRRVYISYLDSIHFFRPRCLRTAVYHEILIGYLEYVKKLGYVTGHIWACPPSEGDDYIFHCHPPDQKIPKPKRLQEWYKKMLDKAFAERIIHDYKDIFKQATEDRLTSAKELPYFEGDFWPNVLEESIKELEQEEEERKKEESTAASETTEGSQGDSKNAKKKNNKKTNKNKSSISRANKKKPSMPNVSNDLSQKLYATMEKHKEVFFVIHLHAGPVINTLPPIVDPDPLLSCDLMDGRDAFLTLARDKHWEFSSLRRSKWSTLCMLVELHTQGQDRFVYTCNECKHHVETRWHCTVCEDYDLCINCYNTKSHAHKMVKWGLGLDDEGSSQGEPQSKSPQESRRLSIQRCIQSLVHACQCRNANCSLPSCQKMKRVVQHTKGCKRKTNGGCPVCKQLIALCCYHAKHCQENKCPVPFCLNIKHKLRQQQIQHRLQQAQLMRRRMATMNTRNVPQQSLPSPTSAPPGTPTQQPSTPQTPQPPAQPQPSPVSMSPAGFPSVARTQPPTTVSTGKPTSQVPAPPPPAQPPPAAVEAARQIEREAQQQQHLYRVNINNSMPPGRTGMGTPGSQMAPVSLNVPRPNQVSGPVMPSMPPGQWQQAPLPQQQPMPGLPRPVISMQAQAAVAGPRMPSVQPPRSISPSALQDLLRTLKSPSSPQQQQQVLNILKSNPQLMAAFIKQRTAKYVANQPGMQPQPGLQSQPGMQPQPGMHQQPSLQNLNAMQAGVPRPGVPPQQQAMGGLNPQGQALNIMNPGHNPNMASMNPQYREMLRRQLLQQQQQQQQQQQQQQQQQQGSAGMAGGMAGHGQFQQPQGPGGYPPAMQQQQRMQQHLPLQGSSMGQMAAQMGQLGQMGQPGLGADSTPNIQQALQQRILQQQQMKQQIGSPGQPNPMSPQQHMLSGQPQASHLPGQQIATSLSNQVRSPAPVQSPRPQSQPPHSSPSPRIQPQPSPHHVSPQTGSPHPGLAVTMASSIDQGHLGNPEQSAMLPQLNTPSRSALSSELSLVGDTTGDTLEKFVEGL", "experiment": "Quantification of CBP degradation by Western blotting in LP1 cells", "format": "cell-based", "experimental": "LP1 cells were cultured in DMEM (Gibco, 41966-029) supplemented with 15 % FBS (Sigma, F9665); MM1S and LNCaP cells in RPMI 1640 ATCC modification (Gibco, […]\nDMEM/F12 (Gibco, 11320074) supplemented with 1 % non-essential amino acids […]\nadditionally supplemented with 1 % penicillin/streptomycin (Gibco, 15070-063), and cells maintained in a humidified incubator with 5 % CO2 at 37 °C. The identity of all lines (except for MM1S which were recently purchased from ATCC) was authenticated by STR profiling (performed by Microsynth).\nQuantification of CBP/EP300 degradation by Western blotting\nLP1 cells plated on 6 well plates were treated with the stated compounds at a final concentration of 0.1 % DMSO for the stated time. Cells were harvested on ice, washed in PBS and lysed in RIPA buffer (50 mM tris pH 7.5, 2 mM EDTA, 150 mM NaCl, 0.5 % sodium deoxycholate, 1 % Triton X100) supplemented with cOmplete ™ protease inhibitor cocktail (Roche). Protein concentrations were determined using the Pierce ™ BCA Protein Assay Kit (Thermo Scientific, 23227) and equal amounts were separated on 4-12 % ExpressPl us™ PAGE gels (GenScript, M41215). Proteins were transferred to PVDF membranes, the membranes were blocked with 5 % milk (Merk Millipore, 115363) in PBS-T and proteins were stained with the following antibodies at 4 °C overnight: CBP […]\nBRD4 (Bethyl Laboratories, A301-985A50, diluted 1:2000) and vinculin (Invitrogen, 42H89L44, diluted 1:1000). For detection, membranes were incubated for 1 h at room temperature with HRP-conjugated secondary antibodies (Southern Biotech, anti-rabbit […]\nSuperSignal™ West Pico PLUS Chemiluminescent Substrate (Thermo Scientific, 34580) and the Vilber Fusion-FX7 imager. Bands were quantified using ImageJ software and protein levels normalized to protein from DMSO treated cells run on the same membrane. For dose response curves, data was fitted using a four -parameter dose-response curve in GraphPad Prism v. 9.5.1, where the top is fixed at 100 %. The DC50 was defined as the PROTAC concentration resulting in 50 % remaining protein. […]"}, "LP1 cells": {"system": "LP1 cells", "experiment": "Cell viability (resazurin), LP1", "format": "cell-based", "details": "Homo sapiens, LP-1, 72 h, 3 days", "experimental": "The primer sequences used were:\nGene Gene ID Forward Primer (5’-3’) Reverse primer (5’-3’)\nmyc NM_001354870.1 GTAGTGGAAAACCAGCC […]\ncrebbp NM_004380.3 TGTCACAGGGACAGGTGC […]\nCells were plated onto 96 well plates at the following densities in 90 μl volume: 3x104\nLP1 cells/well or 5x10^3 LNCaP cells/well both plated same day as treatment, or 2x104\nMM1S cells/well or 1.5x10^3 SH-SY5Y cells/well both plated day prior to treatment.\nCompounds were added in 10 μl to give the stated concentrations with a final\nconcentration of 0.1 % DMSO. Following 3 days of compound treatment, resazurin\n(Acros Organics, 189900010) was added at a f inal concentration of 86 μM and incubated\nfor the following times: MM1S 5 h, LP1 3 h, LNCaP 1 h 30 min, SH-SY5Y 6 h.\nFluorescence (excitation = 560 nm, emission = 590 nm) was measured using a\nspectraMax M5 microplate reader (Molecular Devices) and cell viability was calculated\nrelative to DMSO treated cells on the same plate. Data was fitted using a four -parameter\ndose-response curve in GraphPad Prism v. 9.5.1, where the top is fixed at 100 %. GI50\nvalues were calculated as the concentration required to inhibit cell viability to 50 %\nrelative to DMSO treated cells after 3 days.\nSample digestion and clean up: Treated cells were washed in PBS and cell pellets\nwere then lysed in 4 % SDS/Tris-HCl, treated with High Intensity Focused Ultrasound […]"}}}
{"smiles": "Cc1cc2c(NC(=O)c3cc(NC(=O)CCCCCCCCCCNc4cccc5c4C(=O)N(C4CCC(=O)NC4=O)C5=O)cc(-c4ccn(C)n4)c3)cccc2nn1", "note": "(stereo not drawn) [dCE-2]", "values": [{"measurement": "time at which CBP/EP300 degradation begins to occur", "setting": "CBP; 1 μM, time course", "result": "≤ 2", "unit": "h"}, {"measurement": "time to reach maximal CBP/EP300 degradation (Dmax)", "setting": "CBP; 1 μM, time course", "result": "16 to 24", "unit": "h"}, {"measurement": "% remaining CBP", "setting": "CBP; 5 μM compound, 16 h, Western blot", "result": 16, "unit": "%"}, {"measurement": "DC50", "setting": "CBP; 16 h", "result": 40, "unit": "nM"}, {"measurement": "Dmax", "setting": "CBP; LP-1, 16 h", "result": "> 85", "unit": "%"}, {"measurement": "GI50", "setting": "LP1 cells", "result": 1500, "unit": "nM"}]}
